Reference: PMC8036666, “Biological and Physico-Chemical Characteristics of Arginine-Rich Peptide Gemini Surfactants with Lysine and Cystine Spacers” (International Journal of Molecular Sciences, 2021)

Test: in vitro
Details: human, 25% (v/v) normal human serum
Experimental: Serum stability of peptides B7 and C7 was tested in normal human serum (Sigma-Aldrich, Steinheim, Germany) according to the modified Jenssen and Aspmo protocol. Briefly, compounds were incubated in 25% (v/v) human serum solution in RPMI-1640 (Sigma-Aldrich, Steinheim, Germany) at 37 ± 0.1 °C. The final compound concentration was 50 µg/mL. Time intervals were 0, 1, 2, 3, 4, and 5 h. To precipitate serum proteins, 100 µL of solution was added to 200 µL of 96% ethanol (Pure P.A., POCH, Avantor Performance Materials S.A, Gliwice, Poland) and incubated at 4 °C before centrifugation (4 °C, 18,000× g, 2 min; Sorvall ST 16R Centrifuge, Thermo Scientific, Osterode am Harz, Germany). Subsequently, 200 µL of supernatant was transferred to glass vials (1.5 mL, Anchem, Poland), and the liquid was evaporated under nitrogen at 37 °C (approximately 30 min). The vials were lyophilized for 24 h to remove traces of solvents.
The influence of serum matrix on calibration curves was eliminated by the preparation of a series of vials with residual substances from serum. Briefly, ethanol was added to serum solution to precipitate proteins. Subsequently, the precipitate was centrifuged, and the supernatant was collected and evaporated to dryness as described above. Standards of the analyzed compounds were prepared in demineralized water in concentration ranging from 1 to 15 ppm. Next, 333 µL of solutions were moved to vials containing residual matrix substances (blank, without surfactant). Similarly, samples obtained after serum stability experiments were dissolved in 333 µL of demineralized water and analyzed. Analyses were performed using UPLC-HRMS. The mobile phase contained deionized water (solvent A) and acetonitrile (solvent B; ACN for HPLC-gradient grade; POCH, Avantor, Gliwice, Poland) both supplemented with a 0.1% (v/v) formic acid (Sigma-Aldrich, Steinheim, Germany).
The quantification of lipopeptides was performed using an Agilent 1290 Infinity chromatograph and Agilent 6550 Quadrupole Time-of-flight (Q-TOF) high-resolution mass spectrometer (HRMS). Gradient LC analyses were conducted using a ZORBAX Eclipse Plus C18 column (Rapid Resolution HD, 2.1 × 50 mm, 1.8 µm) and mobile phases: A—water containing 0.3% of acetonitrile and B—acetonitrile, both with 0.1% (v/v) formic acid. […] The mass detector equipped with an ESI source in HRMS mode was set in scanning mode 100–1700 m/z range in positive ionization. Chromatograms for a desired m/z value were extracted, and calibration curves were prepared using Mass Hunter software. All standards and serum samples were subjected to LC-MS analysis, and all analyses were performed in triplicate. Calibration curves were prepared for chromatograms extracted for m/z values corresponding to mono-, di-, tri- and tetra-charged ions. For analysis of peptide C7, a pseudomolecular ion [M+H]^+ (m/z 1227.8017) was selected, while for the other peptide B7, triple charged ion [M+3H]^3+ (m/z 378.9606).

## CCCCCCC(CCCC)C(=O)N[C@@H](CCCNC(=N)N)C(=O)N[C@@H](CCCNC(=N)N)C(=O)NCCCC[C@H](NC(=O)[C@H](CCCNC(=N)N)NC(=O)[C@H](CCCNC(=N)N)NC(=O)C(CCCC)CCCCCC)C(N)=O (stereo partly drawn) [Compound B7]
  remaining at 0 h, 50 µg/mL: 100 ± 2.4%
  remaining at 1 h, 50 µg/mL: 94.3 ± 1.8%
  remaining at 2 h, 50 µg/mL: 87.3 ± 1.7%
  remaining at 3 h, 50 µg/mL: 83.1 ± 1.6%
  remaining at 4 h, 50 µg/mL: 80.1 ± 1.2%
  remaining at 5 h, 50 µg/mL: 63.2 ± 2.9%

## CCCCCCC(CCCC)C(=O)N[C@@H](CCCNC(=N)N)C(=O)N[C@@H](CCCNC(=N)N)C(=O)N[C@@H](CSSC[C@H](NC(=O)[C@H](CCCNC(=N)N)NC(=O)[C@H](CCCNC(=N)N)NC(=O)C(CCCC)CCCCCC)C(N)=O)C(N)=O (stereo partly drawn) [Compound C7]
  remaining at 0 h, 50 µg/mL: 100 ± 1.1%
  remaining at 1 h, 50 µg/mL: 92.2 ± 2.1%
  remaining at 2 h, 50 µg/mL: 82.5 ± 1.3%
  remaining at 3 h, 50 µg/mL: 79.2 ± 1.6%
  remaining at 4 h, 50 µg/mL: 72.8 ± 3%
  remaining at 5 h, 50 µg/mL: 59.4 ± 1%
